Data as given in article PMC5291411, “Cytotoxic conjugates of betulinic acid and substituted triazoles prepared by Huisgen Cycloaddition from 30-azidoderivatives” (PLoS ONE, 2017).

Tests used:
CCRF-CEM = assay: Cytotoxic MTS assay, CCRF-CEM; type: cell-based; details: Homo sapiens, 72 h, T-lymphoblastic leukemia
Excerpt: (§1) Cytotoxic activity of all synthesized compounds was investigated in vitro against eight human cancer cell lines and two non-tumor fibroblasts using the standard MTS test (Table 1). The cancer cell lines were derived from T-lymphoblastic leukemia CCRF-CEM, leukemia K562 and their multiresistant counterparts expressing P-glycoprotein, MRP1 and LRP proteins (CEM-DNR, K562-TAX), solid tumors including lung (A549) and colon (HCT116, HCT116p53-/-) carcinomas, osteosarcoma cell line (U2OS), and for comparison, tests were performed on two human non-cancer fibroblast cell lines (BJ, MRC-5).
(§2) Biological assays were performed in concordance with our previous publications [[29], [58]; [60]; [61]]. All cells (if not indicated otherwise) were purchased from the American Tissue Culture Collection (ATCC). The CCRF-CEM line is derived from T lymphoblastic leukemia, evincing high chemosenzitivity, K562 represent cells from an acute myeloid leukemia patient sample with bcr-abl translocation, U2OS line is derived from osteosarcoma, HCT116 is colorectal tumor cell line and its p53 gene knock-down counterpart (HCT116p53-/-, Horizon Discovery Ltd, UK) is a model of human cancers with p53 mutation frequently associated with poor prognosis, A549 line is lung adenocarcinoma. The daunorubicin resistant subline of CCRF-CEM cells (CEM-DNR bulk) and paclitaxel resistant subline K562-TAX were selected in our laboratory by the cultivation of maternal cell lines in increasing concentrations of daunorubicine or paclitaxel, respectively. The CEM-DNR bulk cells overexpress MRP-1 and P-glycoprotein protein, while K562-TAX cells overexpress P-glycoprotein only. Both proteins belong to the family of ABC transporters and are involved in the primary and/or acquired multidrug resistance phenomenon. MRC-5 and BJ cell lines were used as a non-tumor control and represent human fibroblasts. The cells were maintained in nunc/corning 80 cm^2 plastic tissue culture flasks and cultured in cell culture medium according to ATCC or Horizon recommendations (DMEM/RPMI 1640 with 5 g/L glucose, 2 mM glutamine, 100 U/mL penicillin, […] streptomycin, 10% fetal calf serum, and NaHCO3).
(§3) MTS assay was performed at Institute of Molecular and Translational Medicine by robotic platform (HighResBiosolutions). Cell suspensions were prepared and diluted according to the particular cell type and the expected target cell density (25000–35000 cells/mL based on cell growth characteristics). Cells were added by automatic pipetor (30 μL) into 384 well microtiter plates. All tested compounds were dissolved in 100% DMSO and four-fold dilutions of the intended test concentration were added in 0.15 μL aliquots at time zero to the microtiter plate wells by the echoacustic non-contact liquid handler Echo550 (Labcyte). The experiments were performed in technical duplicates and three biological replicates at least. The cells were incubated with the tested compounds for 72 h at 37°C, in a 5% CO2 atmosphere at 100% humidity. At the end of the incubation period, the cells were assayed by using the MTS test. Aliquots (5 μL) of the MTS stock solution were pipetted into each well and incubated for additional 1–4 h. After this incubation period, the optical density (OD) was measured at 490 nm with an Envision reader (Perkin Elmer). Tumor cell survival (TCS) was calculated by using the following equation: TCS = (ODdrug-exposed well/mean ODcontrol wells) × 100%. The IC50 value, the drug concentration that is lethal to 50% of the tumor cells, was calculated from the appropriate dose-response curves in Dotmatics software.

CEM-DNR = assay: Cytotoxic MTS assay, CEM-DNR; type: cell-based; details: Homo sapiens, 72 h, daunorubicin resistant subline of CCRF-CEM
Excerpt: as §1, §2, §3

K562 = assay: Cytotoxic MTS assay, K562; type: cell-based; details: Homo sapiens, 72 h, leukemia
Excerpt: as §1, §2, §3

K562-TAX = assay: Cytotoxic MTS assay, K562-TAX; type: cell-based; details: Homo sapiens, 72 h, paclitaxel resistant subline of K562
Excerpt: as §1, §2, §3

A549 = assay: Cytotoxic MTS assay, A549; type: cell-based; details: Homo sapiens, 72 h, lung adenocarcinoma
Excerpt: as §1, §2, §3

HCT116 = assay: Cytotoxic MTS assay, HCT116; type: cell-based; details: Homo sapiens, HCT-116, 72 h, colorectal tumor
Excerpt: as §1, §2, §3

HCT116p53-/- = assay: Cytotoxic MTS assay, HCT116p53-/-; type: cell-based; details: Homo sapiens, 72 h, p53 knock-down colorectal tumor
Excerpt: as §1, §2, §3

U2OS = assay: Cytotoxic MTS assay, U2OS; type: cell-based; details: Homo sapiens, 72 h, osteosarcoma
Excerpt: as §1, §2, §3

BJ = assay: Cytotoxic MTS assay, BJ fibroblasts; type: cell-based; details: Homo sapiens, 72 h, non-tumor fibroblasts
Excerpt: as §1, §2, §3

MRC-5 = assay: Cytotoxic MTS assay, MRC-5 fibroblasts; type: cell-based; details: Homo sapiens, MRC5, 72 h, non-tumor fibroblasts
Excerpt: as §1, §2, §3

SMILES: C=C(CBr)[C@@H]1CC[C@]2(C(=O)O)CC[C@]3(C)C(CCC4[C@@]5(C)CC[C@H](O[Si](c6ccccc6)(c6ccccc6)c6ccccc6)C(C)(C)C5CC[C@]43C)C12 (stereo partly drawn) [Compound 5, 3β-O-Triphenylsilyl-30-bromobetulinic acid]
- IC50 (CCRF-CEM): > 50 µM
- IC50 (CEM-DNR): 13.2 µM
- IC50 (K562): > 50 µM
- IC50 (K562-TAX): 12.2 µM
- IC50 (A549): > 50 µM
- IC50 (HCT116): 35.6 µM
- IC50 (HCT116p53-/-): 31.1 µM
- IC50 (U2OS): 27.9 µM
- IC50 (BJ): > 50 µM
- IC50 (MRC-5): > 50 µM
- melting point: 208 to 210 °C
